Laboratory results published in patent publication US12714677B2, “Dual chamber syringe for administering a hormone encapsulated by a hydrogel” (VITALTE LIFESCIENCES INC., priority 2024, dated 2026).

Legend:
[1] = E2 release from hydrogel discs, E2 pellets and E2 powder into incubation medium (ELISA); assay type: physicochemical; conditions: 50 mL incubation medium, 37° C., 6 rpm
Excerpt: (§1) Low standards were removed from the analysis.

[2] = Release assay on E2 microspheres (same manner as discs); assay type: physicochemical; conditions: day 3
Method: Release assays on the E2 microspheres were conducted in the same manner as described above for the discs.
as §1

[3] = cited from earlier work

Compound: C[C@]12CC[C@@H]3c4ccc(O)cc4CC[C@H]3[C@@H]1CC[C@@H]2O [E2 powder, Beta-estradiol]
- E2 released into incubation media (concentration) ([1]; day 1 / 24 hours): about 1.85 mg/L
- E2 released into incubation media (concentration) ([1]; day 2 / 48 hours): reached the saturation point of the incubation media
- E2 released into incubation media (accumulated concentration) ([1]; day 3 / 72 hours): maintained the saturation point concentration
- E2 release level [2]: approximates the saturation level of E2 in the incubation medium

Compound: C[C@]12CC[C@H]3[C@@H](CCC4=CC(=O)CC[C@@]43C)[C@@H]1CC[C@@H]2O [T, Testosterone]
- solubility factor in water compared to E2 [3]: much higher
